Laboratory results from patent US7897162B2, “Arthropod repellent pharmacophore models, compounds identified as fitting the pharmacophore models, and methods of making and using thereof” (The United States of America as represented by the …, priority 2003, dated 2011).

Experiments:
arthropod = settings: Table 1, training set of 11 repellents; protection (repelling) time; cited from earlier work
arthropods [1] = experiment: Arthropod repellent test of short-listed compounds found by pharmacophore database search; type: in vivo; settings: for Experimental PT: Table 3, compounds identified by database search; for repellent activity against arthropods (in words): short list of 138 compounds from in-house CIS screened
Excerpt: As provided in Example 4, the pharmacophore model of the present invention was used to search three-dimensional multiconformer databases, including an in-house Chemical Information System (Chemical Information System, Division of Experimental Therapeutics, Walter Reed Army Institute of Research, Silver Spring, Md.), National Cancer Institute, IBS and Maybridge databases, to screen for potential new repellent agents. The Chemical Information System database has over 240,000 compounds and was transformed into a multiconformer database in CATALYST® using the catDB® utility program as implemented in the software. The catDB® format allows a molecule to be represented by a limited set of conformations thereby permitting conformational flexibility to be included during the search of the database.
Specifically, the three-dimensional pharmacophore of the present invention was used as a template for search various three-dimensional multi-conformer databases. Three-dimensional multi-conformer databases of molecules comprise all possible conformations of the three-dimensional structure of each molecule in the database within an energy range of 0 to 25 kcal/mol. The three-dimensional structures in the databases were mapped to or compared with the three-dimensional pharmacophore of the present invention to identify compounds having the same or similar three-dimensional conformations.
The compounds were short listed on the basis of their ADME (Absorption, Distribution, Metabolism, and Excretion) properties and were evaluated by rapid in silico screening using Cerus^2ADME methodology. See Cerius^2ADME. Accelrys Inc. (2003) San Diego, Calif. The short listed compounds were then tested for arthropod repellent property using methods known in the art. See e.g. Debboun, et al. (1999) J. Am. Mosq. Cont. Assoc. 15(3):342-347; and Gupta, R K and Rutledge, L C (1991) J. Am. Mosq. Cont. Assoc. 7:490-493, which are herein incorporated by reference.
Three-dimensional multiconformer databases, including an in-house Chemical Information System (Chemical Information System, Division of Experimental Therapeutics, Walter Reed Army Institute of Research, Silver Spring, Md.), National Cancer Institute, IBS and Maybridge databases, were screened for potential new repellent agents using the pharmacophore model of the present invention. The Chemical Information System database of the Division of Experimental Therapeutics, WRAIR is a database of more than 245,000 proprietary compounds. By using the catDB utility program of the CATALYST®, the database was transformed into a multi-conformer based 3D database. The database searching protocol in the CATALYST® involves a rapid 3D screening process followed by a rigorous atom-by-atom mapping in which a fairly comprehensive set of features including the chemical features of the pharmacophore are considered. In addition to the traditional pharmacophore based searching, 3D shape similarity and partial match searching may also be performed. See Kurogi, Y and Gunner, O F (2001) Current Medicinal Chemistry 8:1035-1055, which is herein incorporated by reference.

mosquitoes = settings: cited from earlier work
arthropods [2] = settings: under warm, humid conditions; cited from earlier work
white rats = settings: cited from earlier work

Row | Compound | Experimental PT (arthropod) [h] | Experimental PT (arthropods [1]) [h] | also measured
1 | CCOc1ccccc1C(=O)N(CC)CC | 0.5 |  | 
2 | CCCN(CCC)C(=O)COCc1ccccc1 | 0.5 |  | 
3 | CCCCN1C(O)=CC(C)c2ccccc21 (centres unmarked) | 2.0 |  | 
4 | CCCN(CCC)C(=O)c1ccccc1OCC | 0.3 |  | 
5 | CCCCC(CC)(CO)CO | 1.7 |  | 
6 | CCCCON1CN(C)N(OCCCC)C1=O | 0.6 |  | 
7 | CCN(CC)C(=O)c1ccccc1Cl | 1.2 |  | 
8 | ClOc1c(Cl)c(Cl)c(Cl)c(Cl)c1Cl | 0.2 |  | 
9 | O=C(OCCCO)c1ccccc1 | 7.5 |  | 
10 | CC(C)COC(=O)CC(O)C(=O)OCC(C)C (centres unmarked) | 2.5 |  | 
11 | CC(C)(Oc1ccccc1Cl)C(N)=O [2-(2-chloro-phenoxy)-2-methyl-propionamide] |  | 2.6 | repellent activity against arthropods (in words) (arthropods [1]): found to exhibit repellent activity against arthropods
12 | C=CCSc1nccnc1C [2-allylsulfanyl-3-methyl-pyrazine] |  | 1.6 | repellent activity against arthropods (in words) (arthropods [1]): found to exhibit repellent activity against arthropods
13 | COc1ccc(OC)c(C(=O)CBr)c1 [2-bromo-1-(2,5-dimethoxy-phenyl)-ethanone] |  | 2.6 | repellent activity against arthropods (in words) (arthropods [1]): found to exhibit repellent activity against arthropods
14 | CCN(CC)C(=O)CC1CCCCC1 [2-cyclohexyl-N,N-diethylacetamide] |  | 0.24 | 
15 | Cc1cc(C)c(C)c(C(=O)C(C)C)c1C [2-methyl-1-(2,3,5,6-tetramethyl-phenyl)-propan-1-one] |  | 9.3 | repellent activity against arthropods (in words) (arthropods [1]): found to exhibit repellent activity against arthropods
16 | CCCCCCCCC(O)C1CCC(CCCCC(=O)O)O1 (centres unmarked) [5-[5-(1-hydroxy-nonyl)-tetrahydro-furan-2-yl]-pentanoic acid] |  |  | landing and feeding deterrence (mosquitoes): acts as a landing and feeding deterrent for mosquitoes
17 | CCN(CC)C(=O)c1cccc(C)c1 [DEET, N,N-diethyl-m-toluamide] | 1.0 |  | duration of application (arthropods [2]): 1 to 2 h; toxicity on regular skin application (white rats): gonadotoxic and embryotoxic
18 | CCN(CC)C(=O)Cc1cccc(Br)c1 [N,N-diethyl-2-(3-bromo-phenyl)-acetamide] |  | 0.63 | 
19 | CCN(CC)C(=O)Cc1cccc(C(F)(F)F)c1 [N,N-diethyl-2-(3-trifluoromethyl-phenyl)-acetamide] |  | 0.14 | 
20 | CCN(CC)C(=O)c1cccc(C(F)(F)F)c1 [N,N-diethyl-3-trifluoromethyl-benzamide] |  | 0.5 | 
